pEC50: −log10 of the molar value. Where “and” joins values, the source holds several entries; their conditions need not be identical. Identical values can stand only once. Like-named read-outs stand apart in the source and are kept apart here.
Key:
HSV-2 [1] = experiment: Anti-HSV-2 replication assay in Vero cells, titer by plaque assay; type: cell-based, herpes simplex virus 2; conditions: for Anti-HSV-2 Log10 suppression 5 μM / Anti-HSV-2 Log10 suppression 50 μM: relative to DMSO; for Control of HSV-2 replication after high moi infection: moi 5, 5 μM, 24 h
Summary of the method: (§1)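 Well lysates titered by plaque assay on Vero cells versus DMSO controls; EC50 by non-linear fit from serial dilutions starting at 50 μM.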

HSV-2 [2] = experiment: HSV-2 replication inhibition in primary human foreskin fibroblasts; type: cell-based, herpes simplex virus 2; conditions: for Replication inhibition HSV-2 5 μM / Replication inhibition HSV-2 50 μM / pEC50: HFF cells; for Replication inhibition HSV-2 5 μM / Replication inhibition HSV-2 50 μM: relative to DMSO-treated control
Experimental: (§2) Anti-HSV-1 and -HSV-2 Replication Assay. Compounds to be screened were diluted in PBS supplemented to contain 2% newborn calf serum and 1% glutamine, and added in 100 μL, volume to confluent cell monolayers in 24-well cluster plates. Immediately thereafter HSV-1 and HSV-2, diluted in the supplemented PBS medium, were added to the wells in 50 μl volume such that the final concentration of compound was 50 μM and 5 μM and the multiplicity of infection was 0.1. The plates were incubated at 37° C. for 1 hour and then virus-containing inoculum was removed and the wells were washed once in PBS. Compounds, diluted to 50 μM and 5 μM in DMEM supplemented to contain 2% newborn calf serum and 1% each penicillin/streptomycin, were added at 0.5 mL/well. Plates were incubated at 37° C. an additional 23 hr, and then the plates were visually inspected through a phase contrast microscope for cytopathic effect, and for toxic effect. […] The entire contents of each well were collected by scraping. Samples were frozen at −80° C., and then subsequently thawed, sonicated, and infectious virus titer was determined by standard plaque assay on Vero cell monolayers. Because the compounds were dissolved at 10 mM in 100% DMSO, equivalent dilutions of DMSO were added to additional wells as a control for effects of the diluent. Each experiment was repeated once. EC50 values were determined as above except that serial dilutions of the compound to be tested were prepared starting at 50 μM. The inhibitory values were calculated by non-linear curve-fitting in GraphPad Prism.
(§3) Inhibition of viral replication was next assessed in human foreskin fibroblasts (HFF) to determine whether NTS inhibitors could block HSV-1 and HSV-2 replication in a physiologically relevant, primary human cell type. […] Viral yields 24 hours post-infection were measured by plaque assay.

HSV-1 [3] = experiment: Anti-HSV-1 replication assay in Vero cells, titer by plaque assay; type: cell-based, herpes simplex virus 1; conditions: for Anti-HSV-1 Log10 suppression 5 μM / Anti-HSV-1 Log10 suppression 50 μM / pEC50: moi 0.1, 24 h; for Anti-HSV-1 Log10 suppression 5 μM / Anti-HSV-1 Log10 suppression 50 μM: relative to DMSO; for Control of HSV-1 replication after high moi infection: moi 5, 5 μM
Summary of the method: as §1

HSV-1 [4] = experiment: HSV-1 replication inhibition in primary human foreskin fibroblasts; type: cell-based, herpes simplex virus 1; conditions: HFF cells; for Replication inhibition HSV-1 5 μM / Replication inhibition HSV-1 50 μM: relative to DMSO-treated control
Experimental: as §2, §3

HBV RNaseH = target: T1, HBV RNaseH (Hepatitis B virus genotype A2 subtype adw2, UniProt P03159); experiment: Biochemical inhibition of HBV RNaseH (oligonucleotide-directed RNA cleavage assay); conditions: compounds at 60, 20 or 10 μM
T1 construct: One of the inventors recently produced active recombinant HBV RNase H; hexahistidine; made in house; host or cells: E. coli
Summary of the method: (§4)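 A DNA oligonucleotide was annealed to internally ^32P-labeled RNA, and the heteroduplex was incubated with enzyme alongside compounds at 60, 20 or 10 μM. Cleavage products were resolved by electrophoresis and detected by autoradiography, then quantified against DMSO vehicle reactions.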

human RNaseH1 = target: T2, human RNaseH1 (Homo sapiens, UniProt O60930); experiment: Biochemical inhibition of human RNaseH1 (oligonucleotide-directed RNA cleavage assay); conditions: for Anti-Human RNaseH1: compounds at 60, 20 or 10 μM
T2 construct: hexahistidine; made in house; host or cells: E. coli
T2 sequence (O60930 1-286): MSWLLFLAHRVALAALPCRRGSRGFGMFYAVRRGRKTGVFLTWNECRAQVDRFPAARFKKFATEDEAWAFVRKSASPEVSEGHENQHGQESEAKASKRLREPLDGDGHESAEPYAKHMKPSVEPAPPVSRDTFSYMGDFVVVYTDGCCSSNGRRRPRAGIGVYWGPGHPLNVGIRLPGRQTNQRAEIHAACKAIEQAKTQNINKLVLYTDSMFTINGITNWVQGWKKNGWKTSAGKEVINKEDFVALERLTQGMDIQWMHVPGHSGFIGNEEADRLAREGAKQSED
Summary of the method: as §4

HCMV strain AD169 = experiment: Anti-HCMV CPE inhibition assay (crystal violet) in HFFs; type: cell-based, human cytomegalovirus; conditions: 14 days; for pEC50: read-out: EC50 against HCMV, CPE inhibition assay
Experimental: Anti-HCMV CPE inhibition and cytotoxicity assays. HFFs were infected with HCMV strain AD169 in the presence of serial dilutions of the compounds from 0.0192 to 60 μM. Fourteen days later the monolayers were stained with crystal violet, and retained cell density was quantified using a multiplate autoreader (BioTek). Cytotoxicity was measured the same way, except that the cells were uninfected and neutral red internalization by viable cells was measured.
Antiviral efficacy against HCMV. The ability of select HSV inhibitors to inhibit replication of another major human herpesvirus pathogen, human cytomegalovirus (HCMV) (65) was tested. This was based on the inhibitors strong suppression of HSV-1 and HSV-2 and the prediction that other members of the herpesvirus family would be sensitive to NTS inhibitors due to their shared DNA replication mechanism. Compounds #41, 46, 49, 55, 56, and 59 and the FDA-approved anti-HCMV drug ganciclovir were evaluated with crystal violet CPE and neutral red toxicity assays in HFFs. HFFs were infected with HCMV in the presence of serial dilutions of the compounds that were most inhibitory for HSVs. After 14 days the monolayers were stained and cell density was determined by OD reading. Compound cytotoxicity for uninfected cells was determined in the same manner except that neutral red uptake by viable cells was measured. […] The TI values for the four NTS inhibitors of HCMV ranged from 4 for compound #41 to 38 for #56. Therefore, NTS inhibitors can suppress HCMV replication in addition to inhibiting the HSVs.

[5] = Human alphaherpesvirus 1, Vero, 24 h

T1 sequence (P03159 693-845): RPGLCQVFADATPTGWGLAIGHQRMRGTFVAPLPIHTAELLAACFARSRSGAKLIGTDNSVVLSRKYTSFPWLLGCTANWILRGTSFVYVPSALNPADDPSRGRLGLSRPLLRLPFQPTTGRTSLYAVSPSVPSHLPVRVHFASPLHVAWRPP

| SMILES | Anti-HSV-2 Log10 suppression 5 μM (HSV-2 [1]; 5 μM, moi 0.1, 24 h) [log10] | Anti-HSV-2 Log10 suppression 50 μM (HSV-2 [1]; moi 0.1, 24 h) [log10] | Control of HSV-2 replication after high moi infection (HSV-2 [1]) | Replication inhibition HSV-2 5 μM (HSV-2 [2]; 5 μM) [log10] | Replication inhibition HSV-2 50 μM (HSV-2 [2]) [log10] | Anti-HSV-1 Log10 suppression 5 μM (HSV-1 [3]; 5 μM) [log10] | Anti-HSV-1 Log10 suppression 50 μM (HSV-1 [3]) [log10] | Control of HSV-1 replication after high moi infection (HSV-1 [3]; 24 h) | Replication inhibition HSV-1 5 μM (HSV-1 [4]) [log10] | Replication inhibition HSV-1 50 μM (HSV-1 [4]) [log10] | Anti-HBV RNaseH (HBV RNaseH) | Anti-Human RNaseH1 (human RNaseH1) | pEC50 (HSV-2 [1]; moi 0.1, 24 h) | pEC50 (HSV-2 [2]) | pEC50 (HSV-1 [3]) | pEC50 (HSV-1 [4]) | EC50 against HCMV, CPE inhibition assay (HCMV strain AD169) | pEC50 (HCMV strain AD169) | other results |
| --- | --- | --- | --- | --- | --- | --- | --- | --- | --- | --- | --- | --- | --- | --- | --- | --- | --- | --- | --- |
| Nc1nc2c(ncn2COCCO)c(=O)[nH]1 [ACV, Acyclovir, reference compound] | 3.91 | 5.25 | efficiently controlled virus replication | 4.01 | 6.27 | 4.49 | 5.85 | efficiently controlled virus replication | 5.25 | 6.69 | − (no inhibition at 60 μM) | − (no inhibition at 60 μM) | – | – | – | – | – | – | pEC50 (HSV-2 [2]; Human alphaherpesvirus 2): 6.92; pEC50 (HSV-1 [3]; [5]): 6.68; pEC50 (HSV-1 [4]; Human alphaherpesvirus 1): 6.92 |
| CCOc1ccc(-c2c3cc(O)c(=O)cc-3oc3cc(O)c(O)cc23)cc1 [Compound 30] | 3.69 | 4.55 | – | 2.04 | 6.68 | 1.39 | 4.02 | – | 3.22 | 5.23 | +++ (inhibition at 10 μM) | +++ (inhibition at 10 μM) | 5.41 | 6.28 | 5.23 and 5.38 | 6.49 | – | – | Fold more active against HSV-2 than HSV-1 (HSV-2 [1]; 5 μM): > 100 fold; Fold less effective inhibition of HSV-2 in HFF cells than in Vero cells (HSV-2 [2]; 5 μM): ~45 fold; Concentration giving inhibition of purified human RNaseH 1 (human RNaseH1): < 60 µM |
| Cc1cc(C2CCCCC2)n(O)c(=O)c1 [Compound 41, Ciclopirox, reference compound] | – | 5.25 | – | 5.21 | 4.97 | – | 5.23 | – | 5.06 | 5.57 | − (no inhibition at 60 μM) | + (inhibition at 60 μM) | – | – | – | – | very low μM range | – | pEC50 (HSV-2 [1]; Human alphaherpesvirus 2, moi 0.1, 24 h): 6.35; Inhibition of HSV-2 replication (in words) (HSV-2 [1]; primary screening): strong inhibitor; Suppression of HSV-2 replication, ciclopirox versus its salt (HSV-2 [2]; HFFs, various concentrations, 24 hours): equivalent extent; pEC50 (HSV-2 [2]; Human alphaherpesvirus 2): 6.00; pEC50 (HSV-1 [3]; [5]): 6.57; Inhibition of HSV-1 replication (in words) (HSV-1 [3]; primary screening): strong inhibitor; pEC50 (HSV-1 [4]; Human alphaherpesvirus 1): 6.85; pEC50 (HCMV strain AD169; Human betaherpesvirus 5, AD169, 336 h): 5.68 |
| CC(C)c1ccc(O)c(=O)c(O)c1 [Compound 46, Beta-thujaplicinol] | – | 5.12 | efficiently controlled virus replication | 5.17 | 5.83 | – | 4.81 | efficiently controlled virus replication | 5.83 | 6.39 | +++ (inhibition at 10 μM) | + (inhibition at 60 μM) | 5.77 | 6.42 | 5.71 | 6.01 | very low μM range | 5.85 | – |
| CC(C)=CCc1ccc(O)c(=O)cc1C(C)C [Compound 49, Nootkatin] | – | 5.05 | – | 5.47 | 5.98 | – | 4.72 | – | 5.79 | 6.27 | − (no inhibition at 60 μM) | − (no inhibition at 60 μM) | 6.72 and 6.66 | 5.91 | 6.62 | 6.13 | very low μM range | 5.77 | – |
| CC(=O)NC(CCc1ccc(Cl)c(Cl)c1)c1cccc(O)c(=O)c1 (stereo not shown) [Compound 55] | – | 5.06 | efficiently controlled virus replication | 3.94 | 6.55 | – | 5.04 | efficiently controlled virus replication | 4.99 | 6.17 | + (inhibition at 60 μM) | + (inhibition at 60 μM) | 5.97 | 5.78 | 6.38 | 5.55 | – | < 4.22 | – |
| C=C(C)C1CCc2c(c(C)cc(O)c(=O)c2O)C1 (stereo not shown) [Compound 56, Manicol] | 5.95 | 5.79 | – | 5.93 | 6.80 | 5.14 | 5.82 | – | 5.72 | 6.39 | +++ (inhibition at 10 μM) | − (no inhibition at 60 μM) | 6.24 | 6.26 | 6.46 | 6.62 | very low μM range | 4.42 | HSV-2 replication inhibition, fold (HSV-2 [1]; 5 μM): 891,000 fold; HSV-1 replication inhibition, fold (HSV-1 [3]; 5 μM): 138,000 fold |
